Measurements as given in US20230172912A1, “COMPOUNDS FOR TREATING PNEUMONIA, SEPSIS, AND CORONAVIRUS INFECTION” (HEIDELBERG IMMUNOTHERAPEUTICS GMBH, priority 2020, published 2023).
Values joined by “and” are separate entries in the source; they are usually repeats but may differ in a detail not shown here. Equal entries are not always repeated. Where two headings read alike, the source gives them in different places.

Tests used:
[1] = Safety and clinical laboratory parameters during maraviroc treatment of severe COVID-19; type: in vivo, human
Description: (§1) Clinical laboratory parameters were monitored daily. If patients gave voluntary consent, additional blood for cytokine and chemokine profiling in a research context was obtained and stored at -80° C. until use in the multiplex analysis (Bio-Plex Pro Human Cytokine 48-Plex Screening Panel plus ICAM and VCAM, Biorad, Munich, Germany) as described previously (Halama N, Michel S, Kloor M, et al., Cancer Res 2011;71:5670-7). Median protein concentrations per patient were compared in two groups: before and five or more days after the first day of maraviroc treatment.
Monitoring of clinical laboratory parameters also included, among others, serum levels of creatinine for kidney function, white blood count, lymphocyte count, and interleukin 6 (IL-6) as markers of inflammation and infection.

[2] = tested on: severe COVID-19 (SARS-CoV-2 infection); type: in vivo
[3] = tested on: serum cytokines and chemokines (IL-6, MIP-1b, IP-10, M-CSF); assay: Clinical laboratory IL-6 and research serum cytokine and chemokine multiplex analysis before and after maraviroc; type: in vivo, human
Description: as §1
For research cytokine analyses, cytokines which were undetectable in more than 3 samples were excluded. Correction for batch effects from three experiments was performed using the Python packagepycombat (version 0.14), and was validated by analyzing the mixture of samples within UMAP embeddings (McInnes L, Healy J, Melville J. UMAP: Uniform Manifold Approximation and Projection for Dimension Reduction. arXiv 2018). Wilcoxon signed-rank tests were used when comparing cytokine concentrations between groups. Resulting p-values were adjusted for multiple hypothesis testing according to the Benjamini and Hochberg method (Benjamini Y, Hochberg Y., J R Stat Soc B 1995;57:289-300). Kaplan-Meier estimator of survival was employed to visualize cumulative clinical improvement. Hazard ratio and the logrank test were used to compare improvement between patients in different groups using the R packages survival, survminer, and cmprsk. Stated percentages and quartiles include rounded numbers. Statistical analyses were carried out using R-3.5.3, Python-3.6.4, Excel (Microsoft), and SigmaPlot (Systat Software, Inc).

SARS-CoV-2 pneumonia = assay: Time course of clinical inflammation parameters (CRP, transferrin saturation, IL-6) in serum of COVID-19 pneumonia patients; type: in vivo, human; details: COVID-19 pneumonia patients on standard therapy (piperacillin/tazobactam, caspofungin, hydroxychloroquine), FIG. 1
Description: Patients with diagnosed SARS-CoV-2 pneumonia received standard therapy with piperacillin/tazobactam, caspofungin, and hydroxychloroquine; where deemed clinically necessary, additionally Maraviroc, a CCR5 inhibitor, was administered as indicated in FIG. 1.
Patient characteristics were as follows: • Patient A (FIG. 1A): person, no relevant previous disease; • Patient B (FIG. 1B): person; • Patient C (FIG. 1C): person, no relevant previous disease; • Patient D (FIG. 1 D): person, state after chemotherapy for Burkitt lymphoma; under artificial respiration; • Patient E (FIG. 1E): person; • Patient F (FIG. 1 F): person; • Patient G (FIG. 1G): person, under artificial respiration; • Patient H (FIG. 1 H):person; • Patient I (FIG. 1 I): person; • Patient K (FIG. 1 K): person

SARS-CoV-2 = details: severe COVID-19 cases; preprint; cited from earlier work
interleukin 6 (IL-6) = details: 5 of 6 patients (range 83 to 8175 pg per milliliter), three days after administration; cited from earlier work
[4] = Patient 43, day 5, decreased on days 6 and 7
[5] = serum, subset of 14 patients, p<0.05, not significant after adjustment for multiple testing
[6] = patients who received at least one dose before or concomitant to maraviroc

Molecule: Cc1nnc(C(C)C)n1[C@@H]1C[C@H]2CC[C@@H](C1)N2CC[C@H](NC(=O)C1CCC(F)(F)CC1)c1ccccc1 [maraviroc, 4,4-difluoro—N—[(1S)-3-[(1S,5R)-3-(3-methyl-5-propan-2-yl-1,2,4-triazol-4-yl)-8-azabicyclo[3.2.1]octan-8-yl]-1-phenylpropyl]cyclohexane-1-carboxamide]
- novel adverse events ([1]; 47 severe COVID-19 patients): no novel AEs have been observed
- increase in ALT from baseline [1, 4]: 2.8 fold
- increase in AST from baseline [1, 4]: 3.6 fold
- adverse event grade (CTCAE v5.0) ([1]; Patient 43, liver function): grade 2, moderate liver function AE
- other changes of clinical laboratory parameters ([1]; creatinine, white blood count, lymphocyte count, IL-6 among others, monitored daily): no other clinically significant changes were observed
- median time to a substantial clinical improvement from baseline ([2]; IQR 7-16 days): 9 days
- median time to improvement on the ordinal scale from baseline ([2]; all patients who improved, IQR 5-13 days): 8 days
- patients with improvement on the 6-stage ordinal scale ([2]; breathing ambient air at baseline, 2 of 2 patients): 100%
- patients worsened (died), mortality ([2]; invasive mechanical ventilation at baseline, 1 of 11 patients, 40 day observational period): 9.1% and 9%
- patients remained under invasive ventilation ([2]; invasive ventilation at baseline, 2 of 11 patients): 18.2%
- patients with improvement on the 6-stage ordinal scale ([2]; invasive ventilation at baseline, 8 of 11 patients): 72.7%
- median time to improvement on the ordinal scale from baseline ([2]; invasive ventilation at baseline, IQR 5-19 days): 14 days
- patients showing an improvement during the observational period ([2]; maraviroc patients not treated with HCQ, 14 of 18): 77.9%
- median time to improvement ([2]; maraviroc patients not treated with HCQ, IQR 3-11 days): 7 days
- patients showing an improvement during the observational period ([2]; maraviroc patients treated with at least one dose of HCQ, 22 of 29): 75.9%
- median time to improvement ([2]; maraviroc patients treated with at least one dose of HCQ, IQR 3-13 days): 6 days
- patients with improvement on the 6-stage ordinal scale ([2]; non-invasive ventilation at baseline, 7 of 11 patients): 63.6%
- median time to improvement on the ordinal scale from baseline ([2]; not receiving invasive ventilation at baseline, IQR 5-11 days): 7 days
- patients worsened from non-invasive to invasive ventilation ([2]; one patient of 47, after or during maraviroc treatment): 2.1%
- patients with no change on the 6-stage ordinal scale ([2]; overall cohort, 4 of 47 patients): 8.5%
- deaths (overall mortality) ([2]; overall cohort, 5 of 47 patients, 40 day time frame, median follow-up 12 days): 11%
- patients worsened on the 6-stage ordinal scale ([2]; overall cohort, 6 of 47 patients, including deaths): 12.8%
- patients discharged ([2]; overall cohort, 29 of 47 patients): 61.7%
- patients with substantial clinical improvement (decrease of two stages or more or discharge) ([2]; overall cohort, 34 of 47 patients, day of final data acquisition): 72%
- patients with improvement on the 6-stage ordinal scale ([2]; overall cohort, 37 of 47 patients, baseline until last day of data acquisition): 78.7%
- clinical outcome of coronavirus infection / severe COVID-19 cases ([2]; overall statement): remarkably positive clinical outcomes
- patients with improvement on the 6-stage ordinal scale ([2]; supplemental low-flow oxygen at baseline, 20 of 23 patients): 87%
- patients with no change ([2]; without invasive mechanical ventilation at baseline, 2 of 36 patients): 5.6%
- patients worsened ([2]; without invasive mechanical ventilation at baseline, 5 of 36 patients): 13.9%
- patients improved ([2]; without invasive mechanical ventilation at baseline, 29 of 36 patients): 80.6%
- change in concentration of MIP-1b (CCL4) from before to after treatment ([3]; serum, subset of 14 patients, after = 5 days or more after baseline, FIG. 5): significant increase
- change in IP-10 (CXCL10) from before to after treatment [3, 5]: decrease
- change in M-CSF (CSF1) from before to after treatment [3, 5]: decrease
- median IL-6 level ([3]; three days after administration, decrease from baseline median 74.7 pg per milliliter, p-value=0.002): 37.7 pg per milliliter
- increase of inflammation markers after administration (SARS-CoV-2 pneumonia): reverted in a very fast manner in all cases

Molecule: C[C@]12C=CC(=O)C=C1CC[C@@H]1[C@@H]2[C@@H](O)C[C@@]2(C)[C@H]1CC[C@]2(O)C(=O)CO [prednisolone]
- number of patients who died ([2]; in vivo): 1
- number of patients improved on the ordinal scale from baseline [2, 6]: 3 of 7
- number of patients with no change on the ordinal scale from baseline [2, 6]: 2
- number of patients worsened on the ordinal scale from baseline [2, 6]: 2

Molecule: tocilizumab: concomitant investigational treatment
- number of patients who died [2, 6]: 3
- number of patients with no change on the ordinal scale from baseline [2, 6]: 1 of 4
- number of patients worsened on the ordinal scale from baseline [2, 6]: 3

B1: leronlimab: humanized IgG4 monoclonal antibody that blocks the chemokine receptor CCR5 on immune cells (antibody, chains of the INN, looked up, V domains shown)
VH: EVQLVESGGGLVKPGGSLRLSCAASGYTFSNYWIGWVRQAPGKGLEWIGDIYPGGNYIRNNEKFKDKTTLSADTSKNTAYLQMNSLKTEDTAVYYCGSSFGSNYVFAWFTYWGQGTLVTVSS
VL: DIVMTQSPLSLPVTPGEPASISCRSSQRLLSSYGHTYLHWYLQKPGQSPQLLIYEVSNRFSGVPDRFSGSGSGTDFTLKISRVEAEDVGVYYCSQSTHVPLTFGQGTKVEIK
- change in plasma viral load (SARS-CoV-2): decrease
- change of high IL-6 levels (interleukin 6 (IL-6)): decreased substantially
